Test results from article PMC8327742 (Haematologica, 2021).
Like-named read-outs stand apart in the source and are kept apart here.

Legend:
EBF1-PDGFRB [1] = experiment: viability assay of transformed Ba/F3 cells; assay type: cell-based, Homo sapiens; conditions: Ba/F3 cells with wild-type fusion; cell viability read-out
EBF1-PDGFRB [2] = conditions: Ba/F3 cells with mutant fusion; cell viability read-out; gatekeeper; stated gain

Cc1nc(Nc2ncc(C(=O)Nc3c(C)cccc3Cl)s2)cc(N2CCN(CCO)CC2)n1 [dasatinib]
IC50 (EBF1-PDGFRB [1]): 5.26 nM

Cc1ccc(C(=O)Nc2ccc(CN3CCN(C)CC3)c(C(F)(F)F)c2)cc1C#Cc1cnc2cccnn12 [ponatinib]
IC50 (EBF1-PDGFRB [1]): 5.73 nM
IC50 (EBF1-PDGFRB [2]): 23.93 nM
